Columns and labels:
[1] = Apparent terminal half-life (0-168h) of total radioactivity following single oral administration of [14C] aliskiren hemifumarate at 3 mg.Kg-1 level in marmoset; assay type: ADME, organism-based, Callithrix jacchus, Plasma; conditions: in vivo
[2] = Excretion (0-24h) of radioactivity in faeces following oral administration of [14C] aliskiren hemifumarate at 3 mg.Kg-1 level in marmoset; assay type: ADME, organism-based, Callithrix jacchus, Feces; conditions: in vivo
[3] = Total excretion of radioactivity following oral administration of [14C] aliskiren hemifumarate at 3 mg.Kg-1 level in marmoset; assay type: ADME, organism-based, Callithrix jacchus, Urine/Feces; conditions: in vivo
[4] = Excretion (24h) of radioactivity in faeces following intravenous administration of [14C] aliskiren hemifumarate at 10 mg.Kg-1 level in rat; assay type: ADME, organism-based, Lister-Hooded, Feces; conditions: in vivo
[5] = Mean excretion of radioactivity (48-72h) in urine and faeces following single oral dose of 500 mg.Kg-1 [14C] aliskiren hemifumarate in mouse; assay type: ADME, organism-based, TgRasH2, Urine/Feces; conditions: in vivo
[6] = Mean excretion of radioactivity (0-72h) in urine and faeces following single intravenous dose of 10 mg.Kg-1 [14C] aliskiren hemifumarate in mouse; assay type: ADME, organism-based, TgRasH2, Urine/Feces; conditions: in vivo
[7] = Apparent Km value of metabolism of [14C] aliskiren hemifumarate studied in human liver microsome; assay type: ADME; conditions: microsomes
Cytochrome P450 3A4 = Cytochrome P450 3A4 (Homo sapiens, UniProt P08684); experiment: Metabolic clearance (ul.min.nmol-1 CYP) of aliskiren hemifumarate for CYP3A4 was determined in human liver microsome incubated with [14C]SPP100 hemifumarate; assay type: ADME; conditions: microsomes
Chain of Cytochrome P450 3A4 (P08684 whole entry): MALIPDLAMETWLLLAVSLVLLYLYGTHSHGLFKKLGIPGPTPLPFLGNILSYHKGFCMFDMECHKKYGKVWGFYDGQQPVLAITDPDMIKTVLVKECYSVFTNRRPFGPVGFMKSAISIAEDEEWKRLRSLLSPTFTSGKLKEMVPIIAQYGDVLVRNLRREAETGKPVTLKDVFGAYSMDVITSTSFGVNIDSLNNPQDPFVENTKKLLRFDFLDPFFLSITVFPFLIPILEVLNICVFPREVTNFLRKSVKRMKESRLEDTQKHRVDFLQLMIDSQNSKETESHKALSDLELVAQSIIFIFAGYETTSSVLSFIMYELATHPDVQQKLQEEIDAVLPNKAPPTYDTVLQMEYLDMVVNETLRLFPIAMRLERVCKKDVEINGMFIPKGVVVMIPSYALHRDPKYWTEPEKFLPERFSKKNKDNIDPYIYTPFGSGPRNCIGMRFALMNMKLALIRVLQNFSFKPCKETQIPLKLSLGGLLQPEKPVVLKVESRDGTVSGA

[8] = Excretion of radioactivity (48-72h) in urine following single intravenous dose of 10 mg.Kg-1 [14C] aliskiren hemifumarate in rat; assay type: ADME, organism-based, Albino HAN:WIST; conditions: in vivo
[9] = Excretion of radioactivity (0-96h) in urine following single oral dose of 100 mg.Kg-1 [14C] aliskiren hemifumarate in rat; assay type: ADME, organism-based, Albino HAN:WIST; conditions: in vivo
[10] = Tmax of radioactivity following repeated oral administration of [14C] aliskiren hemifumarate at 100 mg.Kg-1 level studied after 2h of dosing on day 10 in rat; assay type: ADME, organism-based, Albino HAN:WIST; conditions: in vivo
[11] = Concentration of radioactivity in the liver following repeated oral administration of [14C] aliskiren hemifumarate at 100 mg.Kg-1 level studied at 2h after 7th dose in rat; assay type: ADME, organism-based, Albino HAN:WIST; conditions: in vivo
[12] = Concentration of radioactivity in the kidney medulla following repeated oral administration of [14C] aliskiren hemifumarate at 100 mg.Kg-1 level studied at 2h after 3rd dose in rat; assay type: ADME, organism-based, Albino HAN:WIST, Renal medulla; conditions: in vivo
[13] = Concentration of radioactivity in the kidney medulla following repeated oral administration of [14C] aliskiren hemifumarate at 100 mg.Kg-1 level studied at 24h after 7th dose in rat; assay type: ADME, organism-based, Albino HAN:WIST, Renal medulla; conditions: in vivo
[14] = Tmax (0-168h) of total radioactivity following single oral administration of [14C] aliskiren hemifumarate at 3 mg.Kg-1 level in marmoset; assay type: ADME, organism-based, Callithrix jacchus, Plasma; conditions: in vivo
[15] = Cmax normalised (0-168h) of total radioactivity following single intravenous administration of [14C] aliskiren hemifumarate at 1 mg.Kg-1 level in marmoset; assay type: ADME, organism-based, Callithrix jacchus, Plasma; conditions: in vivo
[16] = AUC/dose (0-168h) of total radioactivity following single intravenous administration of [14C] aliskiren hemifumarate at 1 mg.Kg-1 level in marmoset; assay type: ADME, organism-based, Callithrix jacchus, Plasma; conditions: in vivo
[17] = Oral clearance of SPP100 following single oral dose of SPP100 75 mg capsule studied in healthy human; assay type: ADME, organism-based; conditions: plasma
[18] = Oral clearance of SPP100 following single oral dose of SPP100 300 mg capsule studied in healthy human; assay type: ADME, organism-based; conditions: plasma
CYP1A2 [19] = target: T1, CYP1A2 (Homo sapiens, UniProt P05177); experiment: Inhibitory activity of 200 uM SPP100 on 484 Pmoles of cDNA-derived CYP1A2 enzyme in microsome prepared from human lymphoblastoid cell line; assay type: ADME, microsomes; parameters: conc 200 uM, interact cpd conc 50 uM; conditions: probe phenacetin
T1 sequence (P05177 whole entry): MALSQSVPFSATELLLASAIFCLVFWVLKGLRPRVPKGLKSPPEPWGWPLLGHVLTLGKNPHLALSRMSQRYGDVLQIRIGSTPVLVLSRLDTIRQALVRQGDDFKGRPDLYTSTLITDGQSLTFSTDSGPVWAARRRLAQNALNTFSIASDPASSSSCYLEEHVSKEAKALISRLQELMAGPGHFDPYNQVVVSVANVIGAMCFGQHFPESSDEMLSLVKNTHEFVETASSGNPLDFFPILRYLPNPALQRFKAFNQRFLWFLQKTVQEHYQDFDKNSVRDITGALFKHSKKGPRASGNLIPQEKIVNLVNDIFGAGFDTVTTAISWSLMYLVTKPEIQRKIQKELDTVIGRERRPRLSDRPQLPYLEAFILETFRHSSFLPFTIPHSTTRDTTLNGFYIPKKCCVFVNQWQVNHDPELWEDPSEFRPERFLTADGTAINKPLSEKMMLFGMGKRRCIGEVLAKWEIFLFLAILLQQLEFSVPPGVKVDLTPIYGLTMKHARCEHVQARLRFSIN

CYP1A2 [20] = target: T1, CYP1A2; experiment: Inhibitory activity of 200 uM SPP100 on 548 Pmoles of cDNA-derived CYP1A2 enzyme in microsome prepared from human lymphoblastoid cell line; assay type: ADME, microsomes; parameters: conc 200 uM, interact cpd conc 50 uM; conditions: probe phenacetin
[21] = % SPP100 recovered in bile following single intravenous administration of 10 mg.Kg-1 [14C] aliskiren hemifumarate in male rat; assay type: ADME, organism-based, HAN:WIST(SPF); conditions: in vivo
[22] = %Unchanged aliskiren in urine following 10 day repeated oral administration of [14C] aliskiren hemifumarate at 100 mg.Kg-1 level studied in rat; assay type: ADME, organism-based, Albino HAN:WIST; conditions: in vivo, 240 h
[23] = AUC of aliskiren hemifumarate following 8 day once-daily dosing of SPP100B oral solution at 160 mg level studied on day 8 in men; assay type: ADME, organism-based; conditions: male, human, plasma
[24] = Effect of 2 week oral dosing of aliskiren hemifumarate at 50 mg.Kg-1 level on hematological parameter values in male Callithrix jacchus; assay type: toxicity, organism-based, Plasma; conditions: marmoset, in vivo, 336 h
[25] = Cmax of aliskiren hemifumarate following 2 week oral dosing of aliskiren hemifumarate at 100 mg.Kg-1 level studied on day 1 in male Callithrix jacchus; assay type: ADME, organism-based; conditions: marmoset, plasma
[26] = Cmax of aliskiren hemifumarate following 2 week oral dosing of aliskiren hemifumarate at 100 mg.Kg-1 level studied on day 1 in female Callithrix jacchus; assay type: ADME, organism-based; conditions: marmoset, plasma
[27] = Cmax/dose of aliskiren hemifumarate following 4 week oral dietary dosing of aliskiren hemifumarate at 2000 mg.Kg-1 level in female mouse; assay type: ADME, organism-based, CB6F1-TGrasH2; conditions: in vivo, 672 h
[28] = AUC(0-24h) of aliskiren hemifumarate following 2 week oral dosing of aliskiren hemifumarate at 10 mg.Kg-1 level studied on day 1 in male Callithrix jacchus; assay type: ADME, organism-based; conditions: marmoset, plasma
[29] = AUC(0-24h) of aliskiren hemifumarate following 2 week oral dosing of aliskiren hemifumarate at 10 mg.Kg-1 level studied on day 14 in female Callithrix jacchus; assay type: ADME, organism-based; conditions: marmoset, plasma
[30] = AUCspec of aliskiren hemifumarate following 2 week oral dosing of aliskiren hemifumarate at 10 mg.Kg-1 level studied on […] in male Callithrix jacchus; assay type: ADME, organism-based, Plasma; conditions: marmoset, in vivo, 336 h
[31] = Tmax of aliskiren hemifumarate following repeated oral administration of [14C] aliskiren hemifumarate at 100 mg.Kg-1 level studied after 2h of dosing on day 1 in rat; assay type: ADME, organism-based, Albino HAN:WIST; conditions: in vivo
[32] = Cmax normalised (0-168h) of unlabeled aliskiren hemifumarate following single oral administration of aliskiren hemifumarate at 3 mg.Kg-1 level in marmoset; assay type: ADME, organism-based, Callithrix jacchus, Plasma; conditions: in vivo
[33] = AUC (0-96 or 0-168h) of unlabeled aliskiren hemifumarate following single oral administration of aliskiren hemifumarate at 3 mg.Kg-1 level in marmoset; assay type: ADME, organism-based, Callithrix jacchus; conditions: plasma

Work on `COCCCOc1cc(C[C@@H](C[C@H](N)[C@@H](O)C[C@H](C(=O)NCC([14CH3])([14CH3])C(N)=O)C(C)C)C(C)C)ccc1OC.O=C(O)/C=C/C(=O)O` yielded a t1/2 [1] of 45.5 h, a Radiolabel recovery [2] of 84% and a Radiolabel recovery [3] of 104%. For the same compound, the Radiolabel recovery [4] was 66%, the Radiolabel recovery [5] was 9.33% and the Radiolabel recovery [6] was 93.08%. The Km [7] was 43.8 µM, the CL (Cytochrome P450 3A4) was 1013.1 µL·min/nmol and the Radiolabel recovery [8] was 16.2%. For the same compound, the Radiolabel recovery [9] was 0.69%, the “Tmax(10)” value [10] was 218 h and the Radiolabel recovery [11] was “OUTCOME = Detected”. The Radiolabel recovery [12] was “OUTCOME = Detected”, the Radiolabel recovery [13] was “OUTCOME = Detected” and the Tmax [14] was 2 h. The Cmax normalised [15] was 11.42 (umol/L)/(mg/kg) and the AUC normalised [16] was 52.92 (umol.h/L)/(mg/kg).
For `COCCCOc1cc(C[C@@H](C[C@H](N)[C@@H](O)C[C@H](C(=O)NCC(C)(C)C(N)=O)C(C)C)C(C)C)ccc1OC`, the CL/F [17] was 4900 mL/min, the CL/F [18] was 4230 mL/min and the inhibition at 200 µM (CYP1A2 [19]) was 6%. The inhibition at 200 µM (CYP1A2 [20]) was -6.4%, the Compound recovery [21] was 64.3% and the Compound recovery [22] was 43%.
In the case of `COCCCOc1cc(C[C@@H](C[C@H](N)[C@@H](O)C[C@H](C(=O)NCC(C)(C)C(N)=O)C(C)C)C(C)C)ccc1OC.COCCCOc1cc(C[C@@H](C[C@H](N)[C@@H](O)C[C@H](C(=O)NCC(C)(C)C(N)=O)C(C)C)C(C)C)ccc1OC.O=C(O)/C=C/C(=O)O` [ALISKIREN FUMARATE], the AUC at 192 h [23] is reported as 363 ng·h/mL, the Change in hematology [24] is reported as “OUTCOME = Hematological parameter values did not differ from control values. No animals died during the study” and the Cmax [25] is reported as 7200 ng/mL. For the same compound, the Cmax [26] was 7940 ng/mL, the Cmax normalised [27] was 0.615 (ng/mL)/(mg/kg/day) and the AUC(0-t) at 24 h [28] was 22000 ng·h/mL. For the same compound, the AUC at 24 h [29] was 29000 ng·h/mL, the AUC normalised [30] was 3.39 ((ug.h.ml-1)/(mg/kg) and the “Tmax(1)” value [31] was 2 h. For the same compound, the Cmax normalised [32] was 0.132 (umol/L)/(mg/kg) and the AUC at 168 h [33] was 4.55 µM·h.
